# From patent US20120114714A1, “METHOD FOR THE TREATMENT AND PREVENTION OF ERECTILE DYSFUNCTION” (priority 2006, published 2012)
# Legend:
# [1] = tested on: penile corpus cavernosum smooth muscles; assay: Relaxation of phenylephrine-contracted penile corpus cavernosum smooth muscle sections in organ bath; set-up: species or system New Zealand white rabbit; settings: for Relaxation (%): conc. 10^−4 M, section contracted with 10^−4 M phenylephrine
# From the text: A New Zealand white rabbit (2.5 to 3.0 kg) was anesthetized and the overall penis was then dissected from the rabbit. The penile corpus cavernosum smooth muscles were separated from the tunica albuginea in a low-temperature Tyrode's solution aerated with a 95% O2-5% CO2 gas mixture, while observing with a dissection microscope, to prepare a penis section. The penis section was fixed in an organ bath (10 cc) containing a Tyrode's solution. At this time, the one end of the penis section was fixed on the bottom of the organ bath, and a variation in isometric tension of the penile corpus cavernosum smooth muscles was then measured with a force displacement transducer at the other end thereof. After reaching an equilibrium state, the penile section was contracted by treatment of 10^−4 M phenylephrine.
# According to the drug used to treat the penile section, the experimental groups used herein were divided into six groups, i.e., i) a group with administration of SNP as a NO donor, ii) a group with administration of Zaprinast as an inhibitor against PDE-5, an enzyme that mediates hydrolysis of c-GMP, a group with administration of acetylcholine that acts on the nervous system, iv) a group with administration of metformin, one of conventional AMPK activators, v) a group with administration of AICAR (5-aminoimidazole-4-carboxamide-1-beta-D-ribofuranoside), and vi) a group with administration of the compound 1 according to the present invention. These groups were compared with one another, in view of relaxation (%) of the penile corpus cavernosum.
# diabetes-induced rats = assay: Internal pressure of penile corpus cavernosum after electrostimulation in STZ diabetes-induced rats; format: in vivo, Sprague-Dawley white rats; settings: oral for 5 weeks, AICAR 500 mg/kg, compound 1 250 mg/kg, FIG. 7
# From the text: In order to confirm in vivo whether penile erection of a diabetes-induced rat has an influence on the internal pressure of the penile corpus cavernosum, 23 Sprague-Dawley white rats (about 300 g) are divided into a normal control group (Group I, n=6), a diabetes-induced control group (Group II, n=4), a group with administration of AICAR following the diabetes-induction (Group III, n=6), and a group with administration of the compound 1 (Group IV, n=7).
# STZ (streptozotocin) was used to induce diabetes, and the AICAR and the compound 1 were orally administered in dosages of 500 mg/kg and 250 mg/kg, respectively, for 5 weeks. Each of the experimental groups was systemically anesthetized, intubated into one-side of the carotid in order to measure blood pressure, a electrostimulation-purpose catheter was set in the penile corpus cavernosum nerves in the cavum pelvis, and the internal pressure of the penile corpus cavernosum was measured. Electrostimulation was applied to the group for one minute (frequency: 10 Hz, delay: 4 ms, duration: 5 ms, volt: 3V). An increase in internal pressure of the groups was measured, and the groups were compared with one another in view of the increase in internal pressure.
# [2] = tested on: endothelial nitric oxide synthase (eNOS); assay: Phosphorylation of eNOS in HUVEC cells (anti-pS1177 eNOS); format: cell-based; settings: compound 1 10 uM, FIG. 3
# Method: In order to ascertain whether the compound 1 acting as an AMPK activator is implicated in the production of NO, phosphorylation to promote the activity of endothelial nitric oxide synthase (eNOS) was measured. So as to confirm the phosphorylation of eNOS through the compound 1, HUVEC cells were seeded on a 60 mm plate at 1×10^5 in an EBM2/5% FBS medium and cultured for 24 hours. The medium was replaced by a serum-free EBM2 medium and the treatment with the compound 1 (10 uM) was performed for a predetermined period. An anti-pS1177 eNOS was used to measure the phosphorylated eNOS.
# [3] = tested on: penile corpus cavernosum smooth muscles; assay: Compound 1-induced relaxation after endothelium removal (CHAPS) and HO-2 inactivation (ZnPP); set-up: species or system New Zealand white rabbits
# From the text: To ascertain the pharmacological mechanism the compound 1 acts on the relaxation of the penile corpus cavernosum smooth muscles in the New Zealand white rabbits, the smooth muscle sections were relaxed by the treatment of the compound 1 and endothelial cells were then removed from the smooth muscle sections using 10^−4 M of CHAPS (3-[(3-cholamidopropyl) dimethylammonio]-1-propanesulfonate, 0.3% in buffer solution; Sigma) as a lysis buffer. Subsequently, as another neurotransmitter, zinc-protoporphyrin-IX (ZnPP) was administrated thereto, which inactivates heme oxygenase-2 (HO-2) that produces carbon monoxide (CO) that is in vivo produced by blood and acts as a vasodilator.
# [4] = tested on: penile corpus cavernosum smooth muscles; assay: Compound 1-induced relaxation upon blocking of the NO pathway (L-NAME, methylene blue); set-up: species or system New Zealand white rabbit; settings: FIG. 4
# From the text: To confirm the effects of the compound 1 on relaxation of the penile corpus cavernosum smooth muscles upon blocking of a NO pathway, the penile corpus cavernosum smooth muscle sections were contracted by the treatment of phenylephrine, relaxed by the treatment of the compound 1, and then sequentially treated with methylene blue as an inhibitor against guanylate cyclase that helps production of c-GMP and with L-NAME (L-nitroarginine methyl ester) that inhibits production of NO via inhibitory activity against eNOS.
# [5] = target: Phosphodiesterase type 5 (PDE 5) (Homo sapiens, UniProt O76074); settings: cited from earlier work
compound,measurement,setting,value
"NC(=O)c1ncn([C@@H]2O[C@H](CO)[C@@H](O)[C@H]2O)c1N [AICAR, 5-aminoimidazole-4-carboxamide-1-beta-D-ribofuranoside, reference compound]",Relaxation (%),[1],10%
same,average of the highest internal pressure increase of the penile corpus cavernosum after electrostimulation,diabetes-induced rats,4.3±1.0 mmHg
"CC(=O)OCC[N+](C)(C)C [Acetylcholine, acetylcholine]",Relaxation (%),[1],21%
"CC1(C)CCC2=C(O1)c1ccccc1C(=O)C2=O [Compound 1, β-lapachone]",phosphorylation of eNOS (p-eNOS) at 2 hours,[2]; 2 hours,not observed
same,time at which phosphorylation of eNOS (p-eNOS) is maximized,[2],30 min
same,Relaxation (%),[1],92%
same,relaxation effects of penile corpus cavernosum smooth muscles (FIG. 2),[1]; concentration range of 10^−9 to 10^−7 M,about double that of the SNP-administration group
same,relaxation of the CHAPS-administration group (no Znpp) relative to relaxation of the compound 1-administration group,"[3]; 10^−4 M CHAPS, endothelial cells removed",about 45%
same,relaxation of the ZnPP-administration group,"[3]; CHAPS plus zinc-protoporphyrin-IX (ZnPP), FIGS. 5 and 6",almost completely inhibited
same,average of the highest internal pressure increase of the penile corpus cavernosum after electrostimulation,diabetes-induced rats,9.7±5.1 mmHg
same,relaxation caused by the compound 1 after L-NAME and methylene blue,[4]; 10^−3 M of L-NAME and 10^−3 M of methylene blue,partially inhibited
same,inhibition of relaxation by methylene blue compared to the L-NAME-treatment group,[4]; methylene blue 10^−4 M,more greatly inhibited
"CN(C)C(=N)N=C(N)N [Metformin, metformin]",Relaxation (%),[1],0.1%
CCCc1nn(C)c2c(=O)[nH]c(-c3cc(S(=O)(=O)N4CCN(C)CC4)ccc3OCC)nc12 [Viagra],selectivity of PDE 5 inhibition,[5],"≥ 4,000 folds"
CCCOc1ccccc1-c1nc2nn[nH]c2c(=O)[nH]1 [Zaprinast],Relaxation (%),[1],36%
